Test results from patent US12138263B2, “Pyrazolo[3,4-b]pyrazine SHP2 phosphatase inhibitors and methods of use thereof” (Relay Therapeutics, Inc., priority 2018, dated 2024).
Where a name gives a salt, the structure may show the parent alone.

These compounds were tested against SHP2 (Homo sapiens (Human), UniProt Q06124) (assay: SHP2 allosteric inhibition assay (DiFMUP prompt fluorescence)). Conditions: Table 1; 0.25 nM SHP2 with 0.5 μM peptide IRS1_pY1172(dPEG8)pY1222, substrate DiFMUP 100 μM.
Type: biochemical

Row | SMILES | IC50 [µM]
1 | O=S(=O)(F)Oc1cnc2c(N3CCCc4ncccc43)n[nH]c2n1 [Compound 8A] | ≥ 10
2 | O=S(=O)(F)c1cccc2c1CCCN2c1n[nH]c2nc(N3CCCCC3)cnc12 [Compound 4A] | ≥ 10
3 | O=S(=O)(F)Oc1cccc2c1CCCN2c1n[nH]c2nc(N3CCCCC3)cnc12 [Compound 2A] | ≥ 10
4 | O=S(=O)(F)Oc1ccc2c(c1)CCCN2c1n[nH]c2nc(N3CCCCC3)cnc12 [Compound 1A] | ≥ 10
5 | C[C@@H]1OCC2(CCN(c3cnc4c(N5CCCc6cc(OS(=O)(=O)F)ccc65)n[nH]c4n3)CC2)[C@@H]1N [Compound 7A, 1-(6-((3S,4S)-4-amino-3-methyl-2-oxa-8-azaspiro[4.5]decan-8-yl)-1H-pyrazolo[3,4-b]pyrazin-3-yl)-1,2,3,4-tetrahydroquinolin-6-yl Sulfurofluoridate] | < 1
6 | CC1(CN)CCN(c2cnc3c(N4CCCc5cc(OS(=O)(=O)F)ccc54)n[nH]c3n2)CC1 [Compound 6A] | < 1
7 | CC1(CN)CCN(c2cnc3c(N4CCCc5c(OS(=O)(=O)F)cccc54)n[nH]c3n2)CC1 [Compound 3A] | < 1

Same assay, conditions: Table 2; 0.25 nM SHP2 with 0.5 μM peptide IRS1_pY1172(dPEG8)pY1222, substrate DiFMUP 100 μM

Row | SMILES | IC50 [µM]
8 | NC1CCN(C(=O)c2cnc3c(-c4cccc(Cl)c4F)n[nH]c3n2)C1 (stereo not shown) [Compound 5B] | 1 to 10
9 | COC(=O)C1(c2cnc3c(-c4cccc(Cl)c4F)n[nH]c3n2)CCNCC1 [Compound 1B, methyl 4-(3-(3-chloro-2-fluorophenyl)-1H-pyrazolo[3,4-b]pyrazin-6-yl)piperidine-4-carboxylate] | < 1
10 | NC(=O)C1(c2cnc3c(-c4cccc(Cl)c4F)n[nH]c3n2)CCNCC1 [Compound 3B] | < 1
11 | Fc1c(Cl)cccc1-c1n[nH]c2nc(C3CCNCC3)cnc12 [Compound 2B] | < 1
12 | OCC1(c2cnc3c(-c4cccc(Cl)c4F)n[nH]c3n2)CCNCC1 [Compound 4B] | < 1

Second part, the compound after the results:

Row | IC50 [µM] | SMILES
13 | ≥ 10 | CN(CCN)C(=O)c1cnc2c(-c3cccc(Cl)c3F)n[nH]c2n1 [Compound 7B]
14 | ≥ 10 | NCC1CCCCN1C(=O)c1cnc2c(-c3cccc(Cl)c3F)n[nH]c2n1 (stereo not shown) [Compound 13B]
15 | < 1 | C[C@H]1CCN(c2n[nH]c3nc([C@H]4CC[C@@H](CN)CC4)cnc23)c2ccc(C#N)cc21 [Compound 18B, (4S)-4-methyl-1-{6-[(1r,4r)-4-(aminomethyl)cyclohexyl]-1H-pyrazolo[3,4-b]pyrazin-3-yl}-1,2,3,4-tetrahydroquinoline-6-carbonitrile]
16 | ≥ 10 | CC1(CN)CCN(C(=O)c2cnc3c(-c4cccc(Cl)c4F)n[nH]c3n2)C1 (stereo not shown) [Compound 6B]
17 | ≥ 10 | CC(C)(CN)c1cnc2c(-c3cccc(Cl)c3F)n[nH]c2n1 [Compound 11B, 2-[3-(3-chloro-2-fluorophenyl)-1H-pyrazolo[3,4-b]pyrazin-6-yl]-2-methylpropan-1-amine]
18 | 1 to 10 | C[C@H]1CCN(c2n[nH]c3nc([C@H]4CC[C@H](CN)CC4)cnc23)c2ccc(C#N)cc21 [Compound 19B, (4S)-4-methyl-1-{6-[(1s,4s)-4-(aminomethyl)cyclohexyl]-1H-pyrazolo[3,4-b]pyrazin-3-yl}-1,2,3,4-tetrahydroquinoline-6-carbonitrile]
19 | ≥ 10 | NCc1ccccc1-c1cnc2c(N3CCCc4ncccc43)n[nH]c2n1 [Compound 10B, (2-(3-(3,4-dihydro-1,5-naphthyridin-1(2H)-yl)-1H-pyrazolo[3,4-b]pyrazin-6-yl)phenyl)methanamine]
20 | ≥ 10 | NCc1ccn(Cc2cnc3c(-c4cccc(Cl)c4F)n[nH]c3n2)n1 [Compound 9B, (1-((3-(3-chloro-2-fluorophenyl)-1H-pyrazolo[3,4-b]pyrazin-6-yl)methyl)-1H-pyrazol-3-yl)methanamine]

Same assay, conditions: Table 3; 0.25 nM SHP2 with 0.5 μM peptide IRS1_pY1172(dPEG8)pY1222, substrate DiFMUP 100 μM

Row | SMILES | IC50 [µM]
21 | CC1(N)CCN(c2nc3[nH]nc(-c4cccc(Cl)c4F)c3nc2C(=O)O)CC1 [Compound 4C, 6-(4-amino-4-methylpiperidin-1-yl)-3-(3-chloro-2-fluorophenyl)-1H-pyrazolo[3,4-b]pyrazine-5-carboxylic Acid] | 1 to 10
22 | CC1(CN)CCN(c2nc3[nH]nc(-c4cccc(Cl)c4F)c3nc2C(N)=O)CC1 [Compound 2C] | < 1
23 | CC1(N)CCN(c2nc3[nH]nc(-c4cccc(Cl)c4F)c3nc2C(N)=O)CC1 [Compound 3C, 6-(4-amino-4-methylpiperidin-1-yl)-3-(3-chloro-2-fluorophenyl)-1H-pyrazolo[3,4-b]pyrazine-5-carboxamide] | < 1
24 | CC1(CN)CCN(c2nc3[nH]nc(-c4cccc(Cl)c4F)c3nc2C#N)CC1 [Compound 1C] | < 1
25 | CC1(CN)CCN(c2nc3[nH]nc(N4CCCc5ncccc54)c3nc2O)CC1 [Compound 5C, 6-(4-(aminomethyl)-4-methylpiperidin-1-yl)-3-(3,4-dihydro-1,5-naphthyridin-1(2H)-yl)-1H-pyrazolo[3,4-b]pyrazin-5-ol] | < 1

Further lines, results first:

Row | IC50 [µM] | SMILES
26 | < 1 | C[C@@H]1OCC2(CCN(c3nc4[nH]nc(-c5cccc6ncccc56)c4nc3CO)CC2)[C@@H]1N [Compound 22C, (6-((3S,4S)-4-amino-3-methyl-2-oxa-8-azaspiro[4.5]decan-8-yl)-3-(quinolin-5-yl)-1H-pyrazolo[3,4-b]pyrazin-5-yl)methanol]
27 | < 1 | C[C@@H]1OCC2(CCN(c3nc4[nH]nc(N5CCCc6nc(-c7ccn[nH]7)ccc65)c4nc3CO)CC2)[C@@H]1N [Compound 20C, (3-(6-(1H-pyrazol-5-yl)-3,4-dihydro-1,5-naphthyridin-1(2H)-yl)-6-((3S,4S)-4-amino-3-methyl-2-oxa-8-azaspiro[4.5]decan-8-yl)-1H-pyrazolo[3,4-b]pyrazin-5-yl)methanol]
28 | < 1 | COC1CC(N2CCN(c3n[nH]c4nc(N5CCC6(CC5)CO[C@@H](C)[C@H]6N)c(CO)nc34)c3ccc(C#N)cc32)C1 (stereo partly shown) [Compound 21C]
29 | < 1 | COc1nc2c(N3CCCc4ncccc43)n[nH]c2nc1N1CCC2(CC1)CO[C@@H](C)[C@H]2N [Compound 10C, (3S,4S)-8-[5-methoxy-3-(1,2,3,4-tetrahydro-1,5-naphthyridin-1-yl)-1H-pyrazolo[3,4-b]pyrazin-6-yl]-3-methyl-2-oxa-8-azaspiro[4.5]decan-4-amine dihydrochloride]
30 | < 1 | C[C@@H]1OCC2(CCN(c3nc4[nH]nc(-c5cccc(Cl)c5F)c4nc3CO)CC2)[C@@H]1N [Compound 19C]
31 | < 1 | C[C@@H]1OCC2(CCN(c3nc4[nH]nc(N5CCCc6ncccc65)c4nc3CO)CC2)[C@@H]1N [Compound 14C, (6-((3S,4S)-4-amino-3-methyl-2-oxa-8-azaspiro[4.5]decan-8-yl)-3-(3,4-dihydro-1,5-naphthyridin-1(2H)-yl)-1H-pyrazolo[3,4-b]pyrazin-5-yl)methanol]
32 | < 1 | C[C@@H]1OCC2(CCN(c3nc4[nH]nc(-c5ccc6occc6c5)c4nc3CO)CC2)[C@@H]1N [Compound 24C]
33 | < 1 | CC1(CN)CCN(c2nc3[nH]nc(N4CCCc5ncccc54)c3nc2C#N)CC1 [Compound 7C, 6-[4-(aminomethyl)-4-methylpiperidin-1-yl]-3-(1,2,3,4-tetrahydro-1,5-naphthyridin-1-yl)-1H-pyrazolo[3,4-b]pyrazine-5-carbonitrile]
34 | < 1 | CC(=O)N1CCN(c2n[nH]c3nc(N4CCC5(CC4)CO[C@@H](C)[C@H]5N)c(CO)nc23)c2ccccc21 [Compound 23C]
35 | < 1 | CC1(CN)CCN(c2nc3[nH]nc(N4CCCc5ncccc54)c3nc2CO)CC1 [Compound 11C, (6-(4-(aminomethyl)-4-methylpiperidin-1-yl)-3-(3,4-dihydro-1,5-naphthyridin-1(2H)-yl)-1H-pyrazolo[3,4-b]pyrazin-5-yl)methanol]
36 | < 1 | CC1(CN)CCN(c2nc3[nH]nc(N4CCCc5ncccc54)c3nc2C(N)=O)CC1 [Compound 8C, 6-[4-(aminomethyl)-4-methylpiperidin-1-yl]-3-(1,2,3,4-tetrahydro-1,5-naphthyridin-1-yl)-1H-pyrazolo[3,4-b]pyrazine-5-carboxamide]
37 | < 1 | Cc1nc2c(N3CCCc4ncccc43)n[nH]c2nc1N1CCC2(CC1)CO[C@@H](C)[C@H]2N [Compound 13C, (3S,4S)-8-(3-(3,4-dihydro-1,5-naphthyridin-1(2H)-yl)-5-methyl-1H-pyrazolo[3,4-b]pyrazin-6-yl)-3-methyl-2-oxa-8-azaspiro[4.5]decan-4-amine]
38 | < 1 | C[C@@H]1OCC2(CCN(c3nc4[nH]nc(N5CC[C@H](C)c6cc(C#N)ccc65)c4nc3CO)CC2)[C@@H]1N [Compound 17C]
39 | < 1 | C[C@@H]1OCC2(CCN(c3nc4[nH]nc(N5CCCc6ncccc65)c4nc3C#N)CC2)[C@@H]1N [Compound 12C, 6-[(3S,4S)-4-amino-3-methyl-2-oxa-8-azaspiro[4.5]decan-8-yl]-3-(1,2,3,4-tetrahydro-1,5-naphthyridin-1-yl)-1H-pyrazolo[3,4-b]pyrazine-5-carbonitrile]
40 | < 1 | Cc1nc2c(N3CCCc4ncccc43)n[nH]c2nc1N1CCC(C)(CN)CC1 [Compound 6C, (1-(3-(3,4-dihydro-1,5-naphthyridin-1(2H)-yl)-5-methyl-1H-pyrazolo[3,4-b]pyrazin-6-yl)-4-methylpiperidin-4-yl)methanamine]

Same assay, conditions: Table 4; 0.25 nM SHP2 with 0.5 μM peptide IRS1_pY1172(dPEG8)pY1222, substrate DiFMUP 100 μM

Row | IC50 [µM] | SMILES
41 | < 1 | CN(c1cnc2c(-c3cccc(Cl)c3F)n[nH]c2n1)c1ncccc1CCN [Compound 2D, N-(3-(2-aminoethyl)pyridin-2-yl)-3-(3-chloro-2-fluorophenyl)-N-methyl-1H-pyrazolo[3,4-b]pyrazin-6-amine]
42 | 1 to 10 | CN(c1cnc2c(N3CCCc4ncccc43)n[nH]c2n1)c1ncccc1CCN [Compound 3D, N-(3-(2-aminoethyl)pyridin-2-yl)-3-(3,4-dihydro-1,5-naphthyridin-1(2H)-yl)-N-methyl-1H-pyrazolo[3,4-b]pyrazin-6-amine]
43 | < 1 | CN(c1cnc2c(-c3cccc(Cl)c3F)n[nH]c2n1)c1ncccc1CN [Compound 1D, N-(3-(aminomethyl)pyridin-2-yl)-3-(3-chloro-2-fluorophenyl)-N-methyl-1H-pyrazolo[3,4-b]pyrazin-6-amine]
